Key:
[1] = molecular target: Serine/threonine-protein kinase mTOR (Homo sapiens, UniProt P42345)
in vivo [2] = settings: BALB/c, mouse, iv, 5 mg/kg
MCF7 [3] = experiment: Induction of apoptosis in human MCF7 cells assessed as necrotic cells at 2.5 uM incubated for 24 hrs Annexin FITC/PI staining based flow cytometry analysis (reference value: 1.33%); assay type: functional
in vivo [4] = settings: BALB/c, mouse, iv, 5 mg/kg; remark: listed apart in the source
MCF7 [5] = experiment: cells; settings: Homo sapiens, MCF7, 24 h, read-out: Activity
in vivo [6] = settings: BALB/c, mouse, iv
MCF7 [7] = experiment: Induction of apoptosis in human MCF7 cells assessed as early apoptotic cells at 5 uM incubated for 24 hrs Annexin FITC/PI staining based flow cytometry analysis (reference value: 0.87%); assay type: functional
MCF7 [8] = settings: dose 20 mg/kg; route iv; time 19 day
MCF7 [9] = experiment: Induction of apoptosis in human MCF7 cells assessed as early apoptotic cells at 2.5 uM incubated for 24 hrs Annexin FITC/PI staining based flow cytometry analysis (reference value: 0.87%); assay type: functional
MCF7 [10] = experiment: Induction of apoptosis in human MCF7 cells assessed as early apoptotic cells at 10 uM incubated for 24 hrs Annexin FITC/PI staining based flow cytometry analysis (reference value: 0.87%); assay type: functional
in vivo [11] = settings: BALB/c, mouse, iv; remark: listed apart in the source
MCF7 [12] = experiment: Induction of apoptosis in human MCF7 cells assessed as necrotic cells at 5 uM incubated for 24 hrs Annexin FITC/PI staining based flow cytometry analysis (reference value: 1.33%); assay type: functional
MCF7 [13] = experiment: Antitumor activity against human MCF7 cells xenografted in BALB/c mouse assessed as tumor growth inhibition at 20 mg/kg, iv measured every 2 days for 19 days; assay type: functional; settings: MCF7, 456 h, time 19 day, read-out: TGI
in vivo [14] = settings: BALB/c, mouse, iv, 5 mg/kg; remark: listed apart in the source
MCF7 [15] = experiment: cells; settings: Homo sapiens, MCF7, 24 h, read-out: Activity; remark: listed apart in the source
MCF7 [16] = experiment: Induction of apoptosis in human MCF7 cells assessed as late apoptotic cells at 5 uM incubated for 24 hrs Annexin FITC/PI staining based flow cytometry analysis (reference value: 5.84%); assay type: functional
MCF7 [17] = experiment: Antitumor activity against human MCF7 cells xenografted in BALB/c mouse assessed as tumor growth inhibition at 20 mg/kg, iv administered as lipodisc encapsulated form measured every 2 days for 19 days; assay type: functional; settings: MCF7, 456 h, time 19 day, read-out: TGI
in vivo [18] = settings: BALB/c, mouse, iv, 5 mg/kg; remark: listed apart in the source
MCF7 [19] = experiment: Induction of apoptosis in human MCF7 cells assessed as late apoptotic cells at 2.5 uM incubated for 24 hrs Annexin FITC/PI staining based flow cytometry analysis (reference value: 5.84%); assay type: functional
MCF7 [20] = experiment: Antitumor activity against human MCF7 cells xenografted in BALB/c mouse assessed as tumor size at 20 mg/kg, iv measured every 2 days for 19 days (reference value: 1178 +/- 246mm3); assay type: functional; settings: time 19 day
MCF7 [21] = experiment: cells; settings: Homo sapiens, MCF7, 24 h, read-out: Activity; remark: listed apart in the source
MCF7 [22] = experiment: Induction of apoptosis in human MCF7 cells assessed as late apoptotic cells at 10 uM incubated for 24 hrs Annexin FITC/PI staining based flow cytometry analysis (reference value: 5.84%); assay type: functional
in vivo [23] = settings: BALB/c, mouse, iv, 5 mg/kg; remark: listed apart in the source
MCF7 [24] = experiment: Antitumor activity against human MCF7 cells xenografted in BALB/c mouse assessed as tumor size at 20 mg/kg, iv administered as lipodisc encapsulated form measured every 2 days for 19 days (reference value: 1178 +/- 246mm3); assay type: functional; settings: time 19 day
in vivo [25] = settings: BALB/c, mouse, iv, 5 mg/kg; remark: listed apart in the source
in vivo [26] = settings: BALB/c, mouse, iv, 5 mg/kg; remark: listed apart in the source
MCF7 [27] = experiment: Induction of apoptosis in human MCF7 cells assessed as necrotic cells at 10 uM incubated for 24 hrs Annexin FITC/PI staining based flow cytometry analysis (reference value: 1.33%); assay type: functional
in vivo [28] = settings: BALB/c, mouse, iv, 5 mg/kg; remark: listed apart in the source
MCF7 [29] = settings: dose 20 mg/kg; route iv; time 19 day; remark: listed apart in the source
[30] = molecular target: T1, Phosphatidylinositol 4,5-bisphosphate 3-kinase catalytic subunit delta isoform (Homo sapiens, UniProt O00329)
T1 sequence (O00329 whole entry): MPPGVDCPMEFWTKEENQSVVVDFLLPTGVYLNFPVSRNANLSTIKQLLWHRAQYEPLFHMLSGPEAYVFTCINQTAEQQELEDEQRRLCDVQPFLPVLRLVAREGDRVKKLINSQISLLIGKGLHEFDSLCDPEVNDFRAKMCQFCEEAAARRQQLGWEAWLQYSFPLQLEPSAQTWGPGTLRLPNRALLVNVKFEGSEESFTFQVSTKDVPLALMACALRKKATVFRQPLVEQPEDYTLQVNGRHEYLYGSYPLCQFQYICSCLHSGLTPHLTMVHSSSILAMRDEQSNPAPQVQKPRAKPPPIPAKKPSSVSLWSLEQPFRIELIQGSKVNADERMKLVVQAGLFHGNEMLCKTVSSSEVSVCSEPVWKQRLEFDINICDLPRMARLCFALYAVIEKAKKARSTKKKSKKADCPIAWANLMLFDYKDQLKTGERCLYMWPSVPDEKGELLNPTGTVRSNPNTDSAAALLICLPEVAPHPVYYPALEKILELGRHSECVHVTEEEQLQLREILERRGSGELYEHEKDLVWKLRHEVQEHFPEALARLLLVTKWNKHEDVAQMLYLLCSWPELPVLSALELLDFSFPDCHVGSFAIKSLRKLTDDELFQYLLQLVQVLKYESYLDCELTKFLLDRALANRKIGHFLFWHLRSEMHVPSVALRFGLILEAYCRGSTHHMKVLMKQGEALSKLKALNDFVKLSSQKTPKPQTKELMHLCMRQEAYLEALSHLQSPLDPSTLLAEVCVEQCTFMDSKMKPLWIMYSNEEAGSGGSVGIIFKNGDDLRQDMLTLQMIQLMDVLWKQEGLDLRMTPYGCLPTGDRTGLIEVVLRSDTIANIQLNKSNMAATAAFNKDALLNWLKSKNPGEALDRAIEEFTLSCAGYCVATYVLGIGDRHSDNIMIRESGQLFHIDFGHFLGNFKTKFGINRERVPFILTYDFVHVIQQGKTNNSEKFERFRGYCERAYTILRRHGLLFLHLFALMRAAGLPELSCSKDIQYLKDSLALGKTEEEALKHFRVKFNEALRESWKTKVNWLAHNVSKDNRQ

[31] = molecular target: Phosphatidylinositol 4,5-bisphosphate 3-kinase catalytic subunit beta isoform (Homo sapiens, UniProt P42338)
[32] = molecular target: Phosphatidylinositol 4,5-bisphosphate 3-kinase catalytic subunit gamma isoform (Homo sapiens, UniProt P48736); experiment: Inhibition of PI3Kgamma (unknown origin) by ADP-glo plus luminescence assay
[33] = molecular target: Phosphatidylinositol 4,5-bisphosphate 3-kinase catalytic subunit alpha isoform (Homo sapiens, UniProt P42336); experiment: Inhibition of PI3Kalpha (unknown origin) by ADP-glo plus luminescence assay
Cytochrome P450 3A4 = Cytochrome P450 3A4 (Homo sapiens, UniProt P08684); experiment: Inhibition of CYP3A4-M (unknown origin); assay type: ADME
Cytochrome P450 2C19 = Cytochrome P450 2C19 (Homo sapiens, UniProt P33261); experiment: Inhibition of CYP2C19 (unknown origin); assay type: ADME
Cytochrome P450 2C9 = Cytochrome P450 2C9 (Homo sapiens, UniProt P11712); experiment: Inhibition of CYP2C9 (unknown origin); assay type: ADME
Cytochrome P450 2D6 = Cytochrome P450 2D6 (Homo sapiens, UniProt P10635); experiment: Inhibition of CYP2D6 (unknown origin); assay type: ADME
Cytochrome P450 1A2 = molecular target: T2, Cytochrome P450 1A2 (Homo sapiens, UniProt P05177); experiment: Inhibition of CYP1A2 (unknown origin); assay type: ADME
T2 sequence (P05177 whole entry): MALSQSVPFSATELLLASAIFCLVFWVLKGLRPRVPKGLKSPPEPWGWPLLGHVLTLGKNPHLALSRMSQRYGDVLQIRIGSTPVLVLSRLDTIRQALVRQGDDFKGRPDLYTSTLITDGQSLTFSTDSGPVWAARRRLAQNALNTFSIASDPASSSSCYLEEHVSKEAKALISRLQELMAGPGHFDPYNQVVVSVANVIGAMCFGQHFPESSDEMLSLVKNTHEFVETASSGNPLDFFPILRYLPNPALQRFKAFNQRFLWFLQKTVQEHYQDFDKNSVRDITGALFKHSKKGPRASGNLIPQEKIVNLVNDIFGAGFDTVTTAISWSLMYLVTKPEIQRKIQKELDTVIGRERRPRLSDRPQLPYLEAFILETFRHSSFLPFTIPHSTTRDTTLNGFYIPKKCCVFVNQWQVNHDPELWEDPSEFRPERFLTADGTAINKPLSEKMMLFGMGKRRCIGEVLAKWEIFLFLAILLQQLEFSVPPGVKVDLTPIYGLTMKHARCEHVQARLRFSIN

[34] = molecular target: Voltage-gated inwardly rectifying potassium channel KCNH2 (Homo sapiens, UniProt Q12809); experiment: Inhibition of hERG; assay type: toxicity
Sequence of Voltage-gated inwardly rectifying potassium channel KCNH2 (Q12809 whole entry): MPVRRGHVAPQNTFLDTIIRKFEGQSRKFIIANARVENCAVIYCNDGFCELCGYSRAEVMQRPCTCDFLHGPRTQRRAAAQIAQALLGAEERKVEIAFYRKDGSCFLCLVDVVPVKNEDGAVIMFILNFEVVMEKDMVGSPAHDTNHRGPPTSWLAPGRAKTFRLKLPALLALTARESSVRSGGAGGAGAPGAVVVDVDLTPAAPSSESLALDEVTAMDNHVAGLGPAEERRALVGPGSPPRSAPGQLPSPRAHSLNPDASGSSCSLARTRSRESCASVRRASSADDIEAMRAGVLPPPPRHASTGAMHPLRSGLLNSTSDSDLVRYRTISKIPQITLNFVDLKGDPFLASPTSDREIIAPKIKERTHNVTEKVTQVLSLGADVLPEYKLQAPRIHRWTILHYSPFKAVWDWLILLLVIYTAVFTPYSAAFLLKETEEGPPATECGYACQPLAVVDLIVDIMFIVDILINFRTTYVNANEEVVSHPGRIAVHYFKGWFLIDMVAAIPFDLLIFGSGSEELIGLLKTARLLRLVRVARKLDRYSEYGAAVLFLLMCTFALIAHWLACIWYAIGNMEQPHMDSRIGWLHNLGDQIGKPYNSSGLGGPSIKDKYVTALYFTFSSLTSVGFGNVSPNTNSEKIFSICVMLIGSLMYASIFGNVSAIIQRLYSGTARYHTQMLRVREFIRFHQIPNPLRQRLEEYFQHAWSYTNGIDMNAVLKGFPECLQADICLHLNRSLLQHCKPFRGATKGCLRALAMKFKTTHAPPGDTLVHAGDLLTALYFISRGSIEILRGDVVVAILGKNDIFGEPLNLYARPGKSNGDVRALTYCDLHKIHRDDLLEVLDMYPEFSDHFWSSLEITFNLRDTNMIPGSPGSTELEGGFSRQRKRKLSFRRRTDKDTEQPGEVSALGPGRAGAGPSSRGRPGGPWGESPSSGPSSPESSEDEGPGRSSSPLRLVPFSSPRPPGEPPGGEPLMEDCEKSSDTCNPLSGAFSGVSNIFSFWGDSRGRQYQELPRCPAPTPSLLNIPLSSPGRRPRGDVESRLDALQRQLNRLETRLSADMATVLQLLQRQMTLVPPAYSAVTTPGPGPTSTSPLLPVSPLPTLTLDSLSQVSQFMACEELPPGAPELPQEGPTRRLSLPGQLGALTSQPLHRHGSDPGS

Sequence of Phosphatidylinositol 4,5-bisphosphate 3-kinase catalytic subunit beta isoform (P42338 whole entry, canonical isoform): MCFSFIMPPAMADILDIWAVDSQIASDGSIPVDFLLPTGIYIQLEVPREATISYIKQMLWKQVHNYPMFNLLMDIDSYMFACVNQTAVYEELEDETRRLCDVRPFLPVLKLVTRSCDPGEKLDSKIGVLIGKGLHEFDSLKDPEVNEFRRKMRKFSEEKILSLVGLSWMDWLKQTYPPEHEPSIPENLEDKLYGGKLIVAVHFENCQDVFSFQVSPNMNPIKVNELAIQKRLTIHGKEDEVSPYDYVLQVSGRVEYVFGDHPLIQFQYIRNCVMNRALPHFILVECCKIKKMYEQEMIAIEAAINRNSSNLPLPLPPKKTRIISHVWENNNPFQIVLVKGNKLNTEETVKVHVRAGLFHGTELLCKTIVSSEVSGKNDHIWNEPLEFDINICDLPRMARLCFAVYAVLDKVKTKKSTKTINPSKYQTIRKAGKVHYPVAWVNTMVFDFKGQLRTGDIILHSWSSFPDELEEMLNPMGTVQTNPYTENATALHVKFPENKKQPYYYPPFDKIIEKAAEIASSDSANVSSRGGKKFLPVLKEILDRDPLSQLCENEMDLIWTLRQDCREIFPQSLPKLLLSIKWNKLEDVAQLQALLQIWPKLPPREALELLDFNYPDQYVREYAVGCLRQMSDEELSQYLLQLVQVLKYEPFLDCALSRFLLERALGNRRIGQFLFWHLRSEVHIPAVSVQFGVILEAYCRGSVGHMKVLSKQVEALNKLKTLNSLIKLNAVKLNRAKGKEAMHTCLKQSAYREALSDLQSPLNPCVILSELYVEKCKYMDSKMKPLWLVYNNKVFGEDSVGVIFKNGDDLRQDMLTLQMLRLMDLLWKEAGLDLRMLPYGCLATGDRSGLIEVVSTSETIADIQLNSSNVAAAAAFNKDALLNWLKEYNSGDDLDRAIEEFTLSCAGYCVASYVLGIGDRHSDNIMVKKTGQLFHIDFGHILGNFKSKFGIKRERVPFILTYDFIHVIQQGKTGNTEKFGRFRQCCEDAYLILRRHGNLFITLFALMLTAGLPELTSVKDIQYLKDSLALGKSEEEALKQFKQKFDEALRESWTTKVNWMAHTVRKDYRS
Sequence of Phosphatidylinositol 4,5-bisphosphate 3-kinase catalytic subunit gamma isoform (P48736 whole entry, canonical isoform): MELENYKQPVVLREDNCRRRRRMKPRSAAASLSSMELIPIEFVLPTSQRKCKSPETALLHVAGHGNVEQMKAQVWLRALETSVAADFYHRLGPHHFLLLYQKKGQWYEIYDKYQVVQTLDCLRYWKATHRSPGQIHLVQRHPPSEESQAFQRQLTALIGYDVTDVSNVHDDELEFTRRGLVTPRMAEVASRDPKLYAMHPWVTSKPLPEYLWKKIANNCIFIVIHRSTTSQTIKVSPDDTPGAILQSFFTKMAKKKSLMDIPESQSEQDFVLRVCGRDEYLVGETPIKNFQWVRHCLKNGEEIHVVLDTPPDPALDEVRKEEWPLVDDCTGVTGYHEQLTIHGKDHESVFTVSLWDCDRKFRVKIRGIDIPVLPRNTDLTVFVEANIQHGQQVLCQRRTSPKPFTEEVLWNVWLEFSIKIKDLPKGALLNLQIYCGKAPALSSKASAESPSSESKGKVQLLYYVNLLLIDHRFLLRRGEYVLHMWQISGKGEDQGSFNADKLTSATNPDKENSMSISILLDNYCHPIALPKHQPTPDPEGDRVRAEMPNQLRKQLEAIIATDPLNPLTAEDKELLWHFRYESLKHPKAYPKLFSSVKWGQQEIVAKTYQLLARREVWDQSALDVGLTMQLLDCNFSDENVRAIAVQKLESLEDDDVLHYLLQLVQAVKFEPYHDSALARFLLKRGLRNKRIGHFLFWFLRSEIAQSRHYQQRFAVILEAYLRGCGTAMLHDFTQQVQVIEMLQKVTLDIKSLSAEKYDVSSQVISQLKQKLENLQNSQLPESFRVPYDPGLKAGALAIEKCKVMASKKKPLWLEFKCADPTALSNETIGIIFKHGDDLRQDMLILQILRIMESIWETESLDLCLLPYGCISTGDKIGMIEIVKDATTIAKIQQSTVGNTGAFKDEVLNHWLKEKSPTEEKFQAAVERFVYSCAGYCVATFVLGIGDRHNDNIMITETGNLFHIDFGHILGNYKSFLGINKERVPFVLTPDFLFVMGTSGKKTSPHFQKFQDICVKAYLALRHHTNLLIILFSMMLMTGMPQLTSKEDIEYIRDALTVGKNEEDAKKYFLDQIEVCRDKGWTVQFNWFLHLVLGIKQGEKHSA
Sequence of Phosphatidylinositol 4,5-bisphosphate 3-kinase catalytic subunit alpha isoform (P42336 whole entry, canonical isoform): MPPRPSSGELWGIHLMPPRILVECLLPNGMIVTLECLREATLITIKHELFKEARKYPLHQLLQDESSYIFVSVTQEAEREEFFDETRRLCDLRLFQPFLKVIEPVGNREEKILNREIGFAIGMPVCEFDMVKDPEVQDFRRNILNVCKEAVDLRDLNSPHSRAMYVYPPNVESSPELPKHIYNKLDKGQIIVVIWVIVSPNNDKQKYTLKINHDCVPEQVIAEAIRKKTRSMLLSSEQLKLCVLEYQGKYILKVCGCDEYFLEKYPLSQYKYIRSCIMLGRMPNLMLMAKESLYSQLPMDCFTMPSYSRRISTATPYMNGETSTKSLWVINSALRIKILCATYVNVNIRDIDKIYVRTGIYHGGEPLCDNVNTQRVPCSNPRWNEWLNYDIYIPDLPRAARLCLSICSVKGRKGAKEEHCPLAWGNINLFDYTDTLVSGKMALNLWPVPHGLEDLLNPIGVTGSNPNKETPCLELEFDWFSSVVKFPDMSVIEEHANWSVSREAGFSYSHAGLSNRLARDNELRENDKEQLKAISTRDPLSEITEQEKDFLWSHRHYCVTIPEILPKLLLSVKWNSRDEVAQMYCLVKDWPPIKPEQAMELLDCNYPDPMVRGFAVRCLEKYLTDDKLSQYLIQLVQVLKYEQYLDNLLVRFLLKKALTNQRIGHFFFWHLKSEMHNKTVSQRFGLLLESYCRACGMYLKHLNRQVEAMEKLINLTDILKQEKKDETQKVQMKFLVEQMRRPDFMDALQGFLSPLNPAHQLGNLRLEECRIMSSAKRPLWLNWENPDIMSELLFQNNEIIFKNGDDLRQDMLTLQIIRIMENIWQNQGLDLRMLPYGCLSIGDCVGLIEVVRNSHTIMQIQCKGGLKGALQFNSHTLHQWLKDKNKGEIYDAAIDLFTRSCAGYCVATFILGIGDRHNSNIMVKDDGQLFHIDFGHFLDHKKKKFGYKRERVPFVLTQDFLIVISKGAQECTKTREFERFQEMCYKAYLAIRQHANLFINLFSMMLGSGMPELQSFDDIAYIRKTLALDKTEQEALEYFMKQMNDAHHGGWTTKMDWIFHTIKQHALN
Sequence of Cytochrome P450 2C19 (P33261 whole entry): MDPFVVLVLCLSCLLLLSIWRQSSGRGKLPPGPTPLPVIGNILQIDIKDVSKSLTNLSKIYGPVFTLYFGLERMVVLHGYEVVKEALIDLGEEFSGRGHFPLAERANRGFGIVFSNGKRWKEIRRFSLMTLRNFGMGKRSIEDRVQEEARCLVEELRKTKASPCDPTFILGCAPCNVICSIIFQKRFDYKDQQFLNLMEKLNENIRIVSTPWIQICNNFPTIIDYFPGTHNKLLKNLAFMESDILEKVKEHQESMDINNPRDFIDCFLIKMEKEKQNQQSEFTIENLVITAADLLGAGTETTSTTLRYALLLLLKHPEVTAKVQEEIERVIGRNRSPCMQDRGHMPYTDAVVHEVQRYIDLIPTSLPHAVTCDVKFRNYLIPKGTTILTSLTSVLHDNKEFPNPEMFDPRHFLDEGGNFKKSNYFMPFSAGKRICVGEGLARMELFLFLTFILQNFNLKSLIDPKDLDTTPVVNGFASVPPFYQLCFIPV

With `CC(C)(C)OC(=O)N1CC2CCC(C1)N2c1nc(-c2ccc(NC(=O)Nc3ccc4c(c3)COC4=O)cc2)nc(N2CCOCC2)n1` the IC50 [1] was 147 nM.
For `CN(C)C1CCN(C(=O)c2ccc(NC(=O)Nc3ccc(-c4nc(N5CCOCC5)nc(N5CCOCC5)n4)cc3)cc2)CC1` [GEDATOLISIB], the AUC(0-t) at 12 h (in vivo [2]) was 5280 ng·h/mL, the Activity (MCF7 [3]) was 1.59% and the AUC(0-inf) at 12 h (in vivo [4]) was 5640 ng·h/mL. It also gave a viability at 2.5 µM (MCF7 [5]) of 90.4%, an MTD at […] (in vivo [6]) of 30 mg/kg and an Activity (MCF7 [7]) of 0.64%. It also gave a T/C (MCF7 [8]) of 46.7%, an Activity (MCF7 [9]) of 0.68% and an Activity (MCF7 [10]) of 0.82%. It also gave an MTD at […] (in vivo [11]) of 20 mg/kg, an Activity (MCF7 [12]) of 1.95% and an inhibition in vivo at 20 mg/kg (MCF7 [13]) of 53.3%. It also gave an AUC(0-inf) at 12 h (in vivo [14]) of 32100 ng·h/mL, a viability at 10 µM (MCF7 [15]) of 85.5% and an Activity (MCF7 [16]) of 8.41%. The inhibition in vivo at 20 mg/kg (MCF7 [17]) was 55.9%, the Cmax at 12 h (in vivo [18]) was 10700 ng/mL and the Activity (MCF7 [19]) was 7.35%. It also gave an Activity (MCF7 [20]) of 591 mm3, a viability at 5 µM (MCF7 [21]) of 89% and an Activity (MCF7 [22]) of 11.9%. For the same compound, the half-life at 12 h (in vivo [23]) was 1.3 h, the Activity (MCF7 [24]) was 559 mm3 and the half-life at 12 h (in vivo [25]) was 7.4 h. For the same compound, the AUC(0-t) at 12 h (in vivo [26]) was 31500 ng·h/mL, the Activity (MCF7 [27]) was 1.77% and the Cmax at 12 h (in vivo [28]) was 44000 ng/mL. For the same compound, the T/C (MCF7 [29]) was 44.1%.
With `O=C(Nc1ccc(-c2nc(N3CCOCC3)nc(N3CCOCC3)n2)cc1)Nc1ccc2c(c1)CNC2=O` the IC50 [30] was 98.3 nM, the IC50 [31] was 162 nM and the IC50 [32] was 25.5 nM.
For `CC1OC(=O)c2cc(NC(=O)Nc3ccc(-c4nc(N5CCOCC5)nc(N5CCOCC5)n4)cc3)ccc21` (stereo not drawn), the IC50 [1] was 7.2 nM and the IC50 [33] was 45.4 nM.
`C[C@H]1COCCN1c1nc(-c2ccc(NC(=O)Nc3ccc4c(c3)COC4=O)cc2)nc(N2CCOCC2)n1` gave an IC50 [30] of 1320 nM, an IC50 [31] of 754 nM and an IC50 [32] of 725 nM.
With `O=C(Nc1ccc(-c2nc(N3C4CCC3COC4)nc(N3C4CCC3COC4)n2)cc1)Nc1ccc2c(c1)COC2=O` the IC50 [30] was > 10000 nM, the IC50 (Cytochrome P450 3A4) was > 10000 nM and the IC50 (Cytochrome P450 2C19) was > 10000 nM. For the same compound, the IC50 (Cytochrome P450 2C9) was > 10000 nM, the IC50 (Cytochrome P450 2D6) was > 10000 nM and the IC50 (Cytochrome P450 1A2) was > 10000 nM. For the same compound, the IC50 [1] was 1.2 nM, the IC50 [34] was > 30000 nM and the IC50 [31] was > 10000 nM. The IC50 [32] was > 10000 nM.
For `CC(C)(C)OC(=O)N1C(=O)c2ccc(NC(=O)Nc3ccc(-c4nc(N5CCOCC5)nc(N5CCOCC5)n4)cc3)cc2C1=O`, the IC50 [33] was 379 nM.

Source: ChEMBL document CHEMBL5543164 (J Med Chem, 2024)
